Results on 27 compounds are retold here after patent US9034921B2, “Diphenylmethane derivatives as SGLT2 inhibitors” (GREEN CROSS CORPORATION, priority 2011, dated 2015).

For orientation: IC50 means the concentration that gives 50% inhibition. Read a low IC50 as higher potency.

Chain of human SGLT2 (P31639 whole entry): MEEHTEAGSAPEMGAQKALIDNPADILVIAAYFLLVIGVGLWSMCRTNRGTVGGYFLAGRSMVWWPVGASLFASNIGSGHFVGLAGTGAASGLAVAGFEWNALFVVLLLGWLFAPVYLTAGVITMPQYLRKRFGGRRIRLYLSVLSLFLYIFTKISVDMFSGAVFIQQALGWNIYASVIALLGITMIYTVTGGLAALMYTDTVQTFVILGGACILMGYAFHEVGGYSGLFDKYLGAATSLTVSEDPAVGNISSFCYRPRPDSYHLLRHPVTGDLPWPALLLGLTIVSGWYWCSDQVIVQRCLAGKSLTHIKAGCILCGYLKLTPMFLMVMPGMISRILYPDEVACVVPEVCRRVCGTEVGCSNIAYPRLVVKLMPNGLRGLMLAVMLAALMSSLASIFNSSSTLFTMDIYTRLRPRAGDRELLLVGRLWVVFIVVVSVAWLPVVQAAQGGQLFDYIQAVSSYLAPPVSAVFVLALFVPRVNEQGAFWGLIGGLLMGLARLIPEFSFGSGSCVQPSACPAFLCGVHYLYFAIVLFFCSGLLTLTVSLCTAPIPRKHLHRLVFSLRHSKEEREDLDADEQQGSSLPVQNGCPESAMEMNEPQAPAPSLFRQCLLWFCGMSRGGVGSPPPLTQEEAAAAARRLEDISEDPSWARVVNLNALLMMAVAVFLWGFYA

This assay deals with human SGLT2 (Homo sapiens (Human), UniProt P31639). In words: Inhibitory effects on human SGLT2 activities (14C-AMG uptake, sodium-dependent glucose transport assay). The format is cell-based. The conditions noted are these: CHO cells stably expressing hSGLT2, 37° C., 2 h, single determinations. The method, boiled down:
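CHO cells stably expressing hSGLT2 were preincubated 10 min at 37 °C in choline (Na+-free) buffer, then exposed 2 h at 37 °C to compound in Na+ uptake buffer with 8 μM 14C-AMG and 1 mM unlabeled AMG. Radioactivity was scintillation counted; IC50 came from nonlinear regression.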
As to `OC[C@H]1O[C@@H](c2cc(Cc3ccc4c(c3)NCCO4)c(Cl)c3c2CCO3)[C@H](O)[C@@H](O)[C@@H]1O` [Example E231, (2S,3R,4R,5S,6R)-2-(7-Chloro-6-((3,4-dihydro-2H-benzo[b][1,4]oxazin-6-yl)methyl)-2,3-dihydrobenzofuran-4-yl)-6-(hydroxymethyl)-tetrahydro-2H-pyran-3,4,5-triol], the IC50 was 5.56 nM.

In the case of `CCOc1ccc(Cc2cc([C@@H]3O[C@H](CO)[C@@H](O)[C@H](O)[C@H]3O)c3c(c2Cl)OCC3C)cc1` (stereo partly drawn) [Example E224, (2S,3R,4R,5S,6R)-2-(7-Chloro-6-(4-ethoxybenzyl)-3-methyl-2,3-dihydrobenzofuran-4-yl)-6-(hydroxymethyl)-tetrahydro-2H-pyran-3,4,5-triol], the IC50 stood at 0.867 nM.

For the compound `CCc1ccc(C2OCc3ccc([C@@H]4O[C@H](CO)[C@@H](O)[C@H](O)[C@H]4O)cc32)cc1` (stereo partly drawn) [Example E099, (2S,3R,4R,5S,6R)-2-(3-(4-Ethylphenyl)-1,3-dihydroisobenzofuran-5-yl)-6-(hydroxymethyl)-tetrahydro-2H-pyran-3,4,5-triol], the IC50 was 56.2 nM.

For `C=C(C)c1ccc(Cc2cc([C@@H]3O[C@H](CO)[C@@H](O)[C@H](O)[C@H]3O)c3c(c2Cl)OCC3)cc1` [Example E180, (2S,3R,4R,5S,6R)-2-(7-Chloro-6-(4-(prop-1-en-2-yl)benzyl)-2,3-dihydrobenzofuran-4-yl)-6-(hydroxymethyl)tetrahydro-2H-pyran-3,4,5-triol], 0.574 nM corresponded to half-maximal inhibition (IC50).

Turning to `CCN(CC)c1ccc(Cc2cc([C@@H]3O[C@H](CO)[C@@H](O)[C@H](O)[C@H]3O)ccc2Cl)cc1` [Example E210, (2S,3R,4R,5S,6R)-2-(4-Chloro-3-(4-(diethylamino)benzyl)phenyl)-6-(hydroxymethyl)tetrahydro-2H-pyran-3,4,5-triol], the midpoint of inhibition, the IC50, lay at 89.3 nM.

Consider `OC[C@H]1O[C@@H](c2cc(Cc3ccc(C4CC4)cc3)c(Cl)c3c2OCC3)[C@H](O)[C@@H](O)[C@@H]1O` [Example E120, (2S,3R,4R,5S,6R)-2-(4-Chloro-5-(4-cyclopropylbenzyl)-2,3-dihydrobenzofuran-7-yl)-6-(hydroxymethyl)tetrahydro-2H-pyran-3,4,5-triol], for which the IC50 stood at 1.09 nM.

Consider `OC[C@H]1O[C@@H](c2ccc(Cl)c(Cc3ccc4sccc4c3)c2)[C@H](O)[C@@H](O)[C@@H]1O` [Example E031, (2S,3R,4R,5S,6R)-2-(3-(Benzo[b]thiophen-5-ylmethyl)-4-chlorophenyl)-6-(hydroxymethyl)tetrahydro-2H-pyran-3,4,5-triol], for which inhibition was half-maximal at 0.865 nM (IC50).

As to `CCCOc1ccc(Cc2cc([C@@H]3O[C@H](CO)[C@@H](O)[C@H](O)[C@H]3O)c3c(c2Cl)OCC3)cc1` [Example E194, (2S,3R,4R,5S,6R)-2-(7-Chloro-6-(4-propoxybenzyl)-2,3-dihydrobenzofuran-4-yl)-6-(hydroxymethyl)tetrahydro-2H-pyran-3,4,5-triol], half-maximal inhibition (IC50) required 1.22 nM.

In turn, `COc1ccc(Cc2cc([C@@H]3O[C@H](CO)[C@@H](O)[C@H](O)[C@H]3O)c3c(c2Cl)OCCO3)cc1` [Example E104, (2S,3R,4R,5S,6R)-2-(8-Chloro-7-(4-methoxybenzyl)-2,3-dihydrobenzo[b][1,4]dioxin-5-yl)-6-(hydroxymethyl)tetrahydro-2H-pyran-3,4,5-triol] registered an IC50 of 2 nM.

As for `OC[C@H]1O[C@@H](c2ccc(Cl)c(Cc3ccc4c(c3)CCC4)c2)[C@H](O)[C@@H](O)[C@@H]1O` [Example E057, (2S,3R,4R,5S,6R)-2-(4-Chloro-3-((2,3-dihydro-1H-inden-5-yl)methyl)phenyl)-6-(hydroxymethyl)-tetrahydro-2H-pyran-3,4,5-triol], the IC50 came to 2.15 nM.

Compound `OC[C@H]1O[C@@H](c2cc(Cc3ccc(OC4CCCC4)cc3)c(Cl)c3c2CCO3)[C@H](O)[C@@H](O)[C@@H]1O` [Example E232, (2S,3R,4R,5S,6R)-2-(7-Chloro-6-(4-(cyclopentyloxy)benzyl)-2,3-dihydrobenzofuran-4-yl)-6-(hydroxymethyl)-tetrahydro-2H-pyran-3,4,5-triol] showed an IC50 of 1.6 nM.

`COc1ccc(Cc2cc([C@@H]3O[C@H](CO)[C@@H](O)[C@H](O)[C@H]3O)c3c(c2Cl)C(C)(C)CO3)cc1` [Example E218, (2S,3R,4R,5S,6R)-2-(4-Chloro-5-(4-methoxybenzyl)-3,3-dimethyl-2,3-dihydrobenzofuran-7-yl)-6-(hydroxymethyl)tetrahydro-2H-pyran-3,4,5-triol]: the IC50 is 4.66 nM.

Turning to `CCOc1ccc(Cc2cc([C@@H]3O[C@H](CF)[C@@H](O)[C@H](O)[C@H]3O)c3c(c2Cl)OCC3)cc1` [Example E126, (2S,3R,4R,5S,6S)-2-(7-Chloro-6-(4-ethoxybenzyl)-2,3-dihydrobenzofuran-4-yl)-6-(fluoromethyl)tetrahydro-2H-pyran-3,4,5-triol], the midpoint of inhibition, the IC50, lay at 3.21 nM.

In the case of `OC[C@H]1O[C@@H](c2cc(Cc3ccc4c(c3)OCCO4)c(Cl)c3c2OCCC3)[C@H](O)[C@@H](O)[C@@H]1O` [Example E044, (2S,3R,4R,5S,6R)-2-(5-Chloro-6-((2,3-dihydrobenzo[b][1,4]dioxin-6-yl)methyl)chroman-8-yl)-6-(hydroxymethyl)tetrahydro-2H-pyran-3,4,5-triol], the IC50 stood at 1.65 nM.

In turn, `CCOc1ccc(Cc2cc([C@@H]3O[C@H](CO)[C@@H](O)[C@H](O)[C@H]3O)c3sccc3c2Cl)cc1` [Example E046, (2S,3R,4R,5S,6R)-2-(4-Chloro-5-(4-ethoxybenzyl)benzo[b]thiophen-7-yl)-6-(hydroxymethyl)tetrahydro-2H-pyran-3,4,5-triol] returned an IC50 of 275 nM.

The compound `CCCc1ccc(Cc2cc([C@@H]3O[C@H](CO)[C@@H](O)[C@H](O)[C@H]3O)c3occc3c2Cl)cc1` [Example E174, (2S,3R,4R,5S,6R)-2-(4-Chloro-5-(4-propylbenzyl)benzofuran-7-yl)-6-(hydroxymethyl)tetrahydro-2H-pyran-3,4,5-triol] came in with an IC50 of 574 nM.

As to `CCc1ccc(Cc2cc([C@@H]3O[C@H](CO)[C@@H](O)[C@H](O)[C@H]3O)c3c(c2Cl)C(C)CO3)cc1` (stereo partly drawn) [Example E215, (2S,3R,4R,5S,6R)-2-(4-Chloro-5-(4-ethylbenzyl)-3-methyl-2,3-dihydrobenzofuran-7-yl)-6-(hydroxymethyl)tetrahydro-2H-pyran-3,4,5-triol], 0.891 nM corresponded to half-maximal inhibition (IC50).

For the compound `Cc1c(Br)cc([C@@H]2O[C@H](CO)[C@@H](O)[C@H](O)[C@H]2O)cc1Cc1ccc2c(c1)OCCO2` [Example E085, (2S,3R,4R,5S,6R)-2-(3-Bromo-5-((2,3-dihydrobenzo[b][1,4]dioxin-6-yl)methyl)-4-methylphenyl)-6-(hydroxymethyl)-tetrahydro-2H-pyran-3,4,5-triol], the IC50 was determined as 1.82 nM.

In the case of `OC[C@H]1O[C@@H](c2cc(Cc3ccc4c(c3)OCCO4)c(Cl)c3c2OCC3)[C@H](O)[C@@H](O)[C@@H]1O` [Example E191, (2S,3R,4R,5S,6R)-2-(4-Chloro-5-((2,3-dihydrobenzo[b][1,4]dioxin-6-yl)methyl)-2,3-dihydrobenzofuran-7-yl)-6-(hydroxymethyl)tetrahydro-2H-pyran-3,4,5-triol], the midpoint of inhibition, the IC50, lay at 1.57 nM.

Compound `CO[C@@H]1O[C@@H](c2ccc(Cl)c(Cc3ccc4c(c3)OCCO4)c2)[C@H](O)[C@@H](O)[C@@H]1O` [Example E094, (2S,3R,4R,5S,6R)-2-(4-Chloro-3-((2,3-dihydrobenzo[b][1,4]dioxin-6-yl)methyl)phenyl)-6-methoxy-tetrahydro-2H-pyran-3,4,5-triol] registered an IC50 of 53.9 nM.

In the case of `CCOc1ccc(Cc2cc([C@@H]3O[C@H](C)[C@@H](O)[C@H](O)[C@H]3O)c3c(c2Cl)OCC3)cc1` [Example E125, (2S,3R,4S,5S,6R)-2-(7-Chloro-6-(4-ethoxybenzyl)-2,3-dihydrobenzofuran-4-yl)-6-methyltetrahydro-2H-pyran-3,4,5-triol], the IC50 turned out to be 0.728 nM.

Regarding `COc1ccc(Cc2cc([C@@H]3O[C@H](CO)[C@@H](O)[C@H](O)[C@H]3O)c3c(c2Cl)OCC3)cc1` [Example E019, (2S,3R,4R,5S,6R)-2-(7-Chloro-6-(4-methoxybenzyl)-2,3-dihydrobenzofuran-4-yl)-6-(hydroxymethyl)tetrahydro-2H-pyran-3,4,5-triol], it took 1.53 nM to reach half-maximal inhibition (IC50).

As to `CCc1ccc(Cc2cc([C@@H]3O[C@H](CO)[C@@H](O)[C@H](O)[C@H]3O)c3c(c2Cl)OCCC3)cc1` [Example E023, (2S,3R,4R,5S,6R)-2-(8-Chloro-7-(4-ethylbenzyl)chroman-5-yl)-6-(hydroxymethyl)tetrahydro-2H-pyran-3,4,5-triol], the IC50 came to 0.753 nM.

`CCCc1ccc(Cc2cc([C@@H]3O[C@H](CO)[C@@H](O)[C@H](O)[C@H]3O)c3c(c2Cl)OCC3)cc1` [Example E187, (2S,3R,4R,5S,6R)-2-(7-Chloro-6-(4-propylbenzyl)-2,3-dihydrobenzofuran-4-yl)-6-(hydroxymethyl)tetrahydro-2H-pyran-3,4,5-triol]: half-maximal inhibition (IC50) required 1.17 nM.

`OC[C@H]1O[C@@H](c2cc(Cc3ccc(O)cc3)c(Cl)c3c2CCO3)[C@H](O)[C@@H](O)[C@@H]1O` [Example E192, (2S,3R,4R,5S,6R)-2-(7-Chloro-6-(4-hydroxybenzyl)-2,3-dihydrobenzofuran-4-yl)-6-(hydroxymethyl)tetrahydro-2H-pyran-3,4,5-triol]: the 50% inhibitory concentration (IC50) is 1.63 nM.

Compound `N#CCc1ccc(Cc2cc([C@@H]3O[C@H](CO)[C@@H](O)[C@H](O)[C@H]3O)c3c(c2Cl)OCC3)cc1` [Example E203, 2-(4-((7-Chloro-4-((2S,3R,4R,5S,6R)-3,4,5-trihydroxy-6-(hydroxymethyl)tetrahydro-2H-pyran-2-yl)-2,3-dihydrobenzofuran-6-yl)methyl)phenyl)acetonitrile] showed an IC50 of 1.81 nM.

In the case of `CCOc1ccc(Cc2cc([C@@H]3O[C@H](CO)[C@@H](O)[C@H](O)[C@H]3O)c3c(c2Cl)CC(C)S3)cc1` (stereo partly drawn) [Example E143, (2S,3R,4R,5S,6R)-2-(4-Chloro-5-(4-ethoxybenzyl)-2-methyl-2,3-dihydrobenzo[b]thiophen-7-yl)-6-(hydroxymethyl)tetrahydro-2H-pyran-3,4,5-triol], it took 1.03 nM to reach half-maximal inhibition (IC50).
